From ChEMBL document CHEMBL1201862, “PubChem BioAssay data set” (2004)
Active and inactive are the calls of the source.

Key:
Plasmodium falciparum = assay: growth inhibition of P. falciparum 3D7, dose response, 3D7 strain, red blood cells, SYBR Green, cherry-picked (AID 652047); assay type: functional
[1] = human group III sPLA2 inhibitors, dose response, biochemical, QFRET, IC50 (AID 743457);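 also: green fluorescence rise as the enzyme cleaves BODIPY PC-A2 in liposomes; potency for inhibition of the enzyme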
[2] = system: Streptococcus sp. 'group A'; assay: growth inhibition of control SK(-) GAS strain, dose response, counter-screen for streptokinase expression inhibitor project, luminescence, kanamycin, BacTiterGlo, confirmation (AID 1900); assay type: functional, organism-based
Streptococcus = assay: Group A Streptococcus viability loss, dose response, counter-screen for streptokinase expression inhibitor project, luminescence, BacTiterGlo (AID 1915); assay type: functional, organism-based;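 also: potency for reduction of bacterial viability or growth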
[3] = LMP1-driven NF-kB reporter inhibition, dose response, cell-based, luciferase reporter, luminescence, dry powder, set 2 (AID 624376); assay type: functional
Mu-type opioid receptor = Mu-type opioid receptor (Homo sapiens, UniProt P35372); assay type: functional, cell-based;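 also: U2OS cells with beta-arrestin recruitment to OPRM1 by beta-gal complementation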
Mu-type opioid receptor, sequence (P35372 whole entry): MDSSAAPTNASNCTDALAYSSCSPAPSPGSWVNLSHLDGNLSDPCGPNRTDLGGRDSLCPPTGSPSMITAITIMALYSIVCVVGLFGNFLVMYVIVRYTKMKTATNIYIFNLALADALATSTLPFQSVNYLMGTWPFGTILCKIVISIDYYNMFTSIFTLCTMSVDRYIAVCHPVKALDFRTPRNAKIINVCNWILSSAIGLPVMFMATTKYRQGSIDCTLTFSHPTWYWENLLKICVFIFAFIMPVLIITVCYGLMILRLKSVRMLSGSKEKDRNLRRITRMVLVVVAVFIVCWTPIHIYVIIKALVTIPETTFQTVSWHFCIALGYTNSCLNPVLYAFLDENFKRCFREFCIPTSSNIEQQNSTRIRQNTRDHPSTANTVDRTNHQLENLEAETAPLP

[4] = biological target: FAD-linked sulfhydryl oxidase ALR (Homo sapiens, UniProt P55789); assay: inhibitors of human ALR sulfhydryl oxidase, dose response, biochemical, H2O2 detection, luminescence, cherry-pick (AID 493248)
FAD-linked sulfhydryl oxidase ALR, sequence (P55789 whole entry): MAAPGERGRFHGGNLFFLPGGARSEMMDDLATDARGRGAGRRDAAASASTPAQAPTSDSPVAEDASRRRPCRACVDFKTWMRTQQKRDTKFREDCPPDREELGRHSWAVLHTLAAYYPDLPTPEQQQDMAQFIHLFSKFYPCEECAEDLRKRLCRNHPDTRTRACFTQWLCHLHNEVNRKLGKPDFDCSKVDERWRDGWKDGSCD

[5] = biological target: 5-hydroxytryptamine receptor 2A (Mus musculus, UniProt P35363); assay type: functional, cell-based;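 also: CHO-K1 cells with tagged receptor and beta-arrestin; agonist potency measured as compound-induced activation of the receptor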
5-hydroxytryptamine receptor 2A, sequence (P35363 whole entry): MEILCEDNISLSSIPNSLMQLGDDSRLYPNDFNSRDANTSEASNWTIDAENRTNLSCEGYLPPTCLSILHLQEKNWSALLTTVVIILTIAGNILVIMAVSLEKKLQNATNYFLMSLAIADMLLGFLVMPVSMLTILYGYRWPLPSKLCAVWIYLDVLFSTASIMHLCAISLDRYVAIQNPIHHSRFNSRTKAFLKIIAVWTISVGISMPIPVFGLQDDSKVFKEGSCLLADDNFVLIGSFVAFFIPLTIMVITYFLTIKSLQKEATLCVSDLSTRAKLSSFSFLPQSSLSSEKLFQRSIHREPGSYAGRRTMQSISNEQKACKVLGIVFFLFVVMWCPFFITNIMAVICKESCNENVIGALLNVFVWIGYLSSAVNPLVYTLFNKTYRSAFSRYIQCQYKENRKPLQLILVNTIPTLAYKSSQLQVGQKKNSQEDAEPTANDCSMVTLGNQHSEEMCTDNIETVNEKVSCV

[6] = HEK293T cytotoxicity, dose response, cytotoxicity control for miR-122 modulator project, cell-based, activator set, cherry-pick (AID 720690); assay type: functional;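 also: HEK293T human cells scored for general mammalian cytotoxicity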
[7] = HEK293T cytotoxicity, dose response, cytotoxicity control for miR-122 modulator project, cell-based, inhibitor set, cherry-pick, set 2 (AID 720697); assay type: functional
[8] = miR-122 activators in hepatoma reporter cells, dose response, cell-based, Huh7 psiCHECK-miR122, Renilla luciferase, cherry-picked (AID 651956); assay type: functional;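 also: huh7 hepatoma cells stably carrying a psiCHECK-2 miR-122 sensor plasmid; renilla luciferase signal reporting endogenous miR-122 activity after 48 h compound exposure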
NS3 = NS3 (Hepatitis C virus, UniProt A3EZJ3); assay: HCV NS3 helicase inhibitor potency, dose response, biochemical, fluorescence polarization, ChemBridge library (AID 743264)
NS3, sequence (A3EZJ3 whole entry): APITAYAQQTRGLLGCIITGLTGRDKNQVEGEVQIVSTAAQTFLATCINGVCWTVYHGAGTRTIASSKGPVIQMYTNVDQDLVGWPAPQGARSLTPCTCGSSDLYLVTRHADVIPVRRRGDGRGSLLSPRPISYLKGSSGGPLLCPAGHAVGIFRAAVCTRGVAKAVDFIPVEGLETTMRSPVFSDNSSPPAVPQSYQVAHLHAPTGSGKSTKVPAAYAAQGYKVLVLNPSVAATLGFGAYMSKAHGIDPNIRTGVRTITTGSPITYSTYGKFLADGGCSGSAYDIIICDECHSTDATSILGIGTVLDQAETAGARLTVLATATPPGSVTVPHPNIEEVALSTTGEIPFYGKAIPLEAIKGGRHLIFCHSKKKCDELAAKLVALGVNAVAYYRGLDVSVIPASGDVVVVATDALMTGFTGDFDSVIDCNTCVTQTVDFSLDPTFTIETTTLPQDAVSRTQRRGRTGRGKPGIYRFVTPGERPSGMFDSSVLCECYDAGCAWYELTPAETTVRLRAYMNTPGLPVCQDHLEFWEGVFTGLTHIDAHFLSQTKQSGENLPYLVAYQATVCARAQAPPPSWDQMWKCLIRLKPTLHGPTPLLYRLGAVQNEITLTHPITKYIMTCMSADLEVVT

Protein Wnt-3a = Protein Wnt-3a (Mus musculus, UniProt P27467); assay: SAR analysis of small molecule antagonists of Gli-SUFU in a Wnt3a luminescent reporter assay.; assay type: functional
Protein Wnt-3a, sequence (P27467 whole entry): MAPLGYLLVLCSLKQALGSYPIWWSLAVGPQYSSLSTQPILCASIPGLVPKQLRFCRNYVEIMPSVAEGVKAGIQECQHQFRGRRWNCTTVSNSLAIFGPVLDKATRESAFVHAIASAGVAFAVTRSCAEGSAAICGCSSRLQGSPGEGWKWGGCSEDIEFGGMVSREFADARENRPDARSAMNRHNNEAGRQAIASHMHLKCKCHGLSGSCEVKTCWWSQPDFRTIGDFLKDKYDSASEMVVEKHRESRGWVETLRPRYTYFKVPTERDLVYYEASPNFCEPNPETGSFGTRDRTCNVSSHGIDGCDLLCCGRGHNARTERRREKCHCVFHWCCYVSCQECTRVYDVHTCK

[9] = biological target: Serine/threonine-protein phosphatase (Candida dubliniensis (strain CD36 / CBS 7987 / NCPF 3949 / NRRLY-17841) (Yeast), UniProt B9W6M3); assay: calcineurin pathway inhibitors in yeast reporter, dose response, S. cerevisiae, CDRE-lacZ, luminescence, secondary (AID 2388); assay type: functional, cell-based;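 also: yeast reporter cells carrying a calcineurin-responsive lacZ construct stimulated with calcium chloride; luminescent beta-galactosidase reporter signal in whole cells rather than isolated phosphatase activity; potency for inhibition where a drop in reporter signal means calcineurin blockade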
Paired box protein Pax-8 = Paired box protein Pax-8 (Homo sapiens, UniProt Q06710); assay: inhibitors of PAX8-driven TPO luciferase reporter, dose response, RMG-I cells, cherry-pick (AID 687027); assay type: functional, cell-based;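 also: luciferase reporter driven by Pax8 target thyroperoxidase promoter measured by SteadyGlo luminescence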
Paired box protein Pax-8, sequence (Q06710 whole entry): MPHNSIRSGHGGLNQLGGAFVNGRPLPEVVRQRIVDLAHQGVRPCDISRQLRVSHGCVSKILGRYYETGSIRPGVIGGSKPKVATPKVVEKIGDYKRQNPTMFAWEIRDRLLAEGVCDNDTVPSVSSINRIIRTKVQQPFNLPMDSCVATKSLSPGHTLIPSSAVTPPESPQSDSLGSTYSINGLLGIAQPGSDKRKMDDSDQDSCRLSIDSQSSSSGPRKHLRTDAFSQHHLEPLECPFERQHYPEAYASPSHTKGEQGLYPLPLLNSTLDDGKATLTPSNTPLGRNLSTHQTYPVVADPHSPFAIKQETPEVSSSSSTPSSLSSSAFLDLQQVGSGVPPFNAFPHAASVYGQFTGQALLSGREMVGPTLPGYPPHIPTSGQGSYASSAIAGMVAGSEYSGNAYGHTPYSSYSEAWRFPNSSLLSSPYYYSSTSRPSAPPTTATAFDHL

[10] = biological target: ATP-dependent molecular chaperone HSP82 (Candida albicans (strain WO-1) (Yeast), UniProt C4YTQ8); assay: loss of DOC-induced GRE-beta-galactosidase reporter signal, dose response, Hsp90 inhibitor project, S. cerevisiae, luminescence (AID 2400); assay type: functional, cell-based;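 also: beta-galactosidase luminescence from glucocorticoid response element reporter as proxy for Hsp90 function; inhibitor potency where signal loss means Hsp90 inhibition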
ATP-dependent molecular chaperone HSP82, sequence (C4YTQ8 whole entry): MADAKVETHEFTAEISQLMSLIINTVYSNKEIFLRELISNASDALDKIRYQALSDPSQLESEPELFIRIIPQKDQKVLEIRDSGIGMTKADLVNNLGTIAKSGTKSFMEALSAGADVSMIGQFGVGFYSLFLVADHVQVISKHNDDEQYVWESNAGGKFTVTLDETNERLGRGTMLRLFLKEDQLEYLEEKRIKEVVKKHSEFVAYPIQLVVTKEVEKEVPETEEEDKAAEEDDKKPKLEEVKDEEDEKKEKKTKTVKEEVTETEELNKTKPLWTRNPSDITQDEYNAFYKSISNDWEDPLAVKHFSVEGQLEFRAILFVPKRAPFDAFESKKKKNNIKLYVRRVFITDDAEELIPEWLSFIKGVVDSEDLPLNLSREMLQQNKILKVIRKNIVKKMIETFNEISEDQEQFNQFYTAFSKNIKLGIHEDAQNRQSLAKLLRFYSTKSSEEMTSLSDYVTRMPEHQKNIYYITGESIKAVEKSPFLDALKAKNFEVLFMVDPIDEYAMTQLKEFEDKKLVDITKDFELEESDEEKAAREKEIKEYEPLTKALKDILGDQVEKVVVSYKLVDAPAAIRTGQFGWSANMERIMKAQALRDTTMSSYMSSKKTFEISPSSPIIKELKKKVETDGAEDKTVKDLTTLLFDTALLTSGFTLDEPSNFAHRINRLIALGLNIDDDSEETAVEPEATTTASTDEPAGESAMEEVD

[11] = inhibitors of CMV-promoter luciferase reporter, dose response, counter-screen for Pax8 inhibitor project, cell-based, HEK293, luminescence, dry powder (AID 743020); assay type: functional
[12] = NIH-3T3 fibroblast cytotoxicity, dose response, cytotoxicity control, cell-based, fluorescence, Alamar Blue, secondary assay (AID 2327); assay type: functional;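 also: NIH-3T3 mouse fibroblasts cultured with fluconazole at 8 µg/mL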
[13] = C. albicans growth with fluconazole, confirmation, fluorescence, retest (AID 2467); assay type: functional, cell-based
[14] = biological target: Arf-GAP with SH3 domain, ANK repeat and PH domain-containing protein 1 (Homo sapiens, UniProt Q9ULH1); assay type: functional;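 also: biochemical fluorescence polarization dose–response screen measuring inhibition of ASAP1; ASAP1 GAP domain stimulating GTP hydrolysis by truncated human ARF1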
[15] = biological target: T1, Rac GTPase-activating protein 1 (Homo sapiens, UniProt Q9H0H5); assay: MgcRacGAP GTPase-activating activity inhibitors, confirmation, biochemical, ADP Hunter fluorescence, primary and confirmatory (AID 624330); assay type: functional
T1 sequence (Q9H0H5 whole entry): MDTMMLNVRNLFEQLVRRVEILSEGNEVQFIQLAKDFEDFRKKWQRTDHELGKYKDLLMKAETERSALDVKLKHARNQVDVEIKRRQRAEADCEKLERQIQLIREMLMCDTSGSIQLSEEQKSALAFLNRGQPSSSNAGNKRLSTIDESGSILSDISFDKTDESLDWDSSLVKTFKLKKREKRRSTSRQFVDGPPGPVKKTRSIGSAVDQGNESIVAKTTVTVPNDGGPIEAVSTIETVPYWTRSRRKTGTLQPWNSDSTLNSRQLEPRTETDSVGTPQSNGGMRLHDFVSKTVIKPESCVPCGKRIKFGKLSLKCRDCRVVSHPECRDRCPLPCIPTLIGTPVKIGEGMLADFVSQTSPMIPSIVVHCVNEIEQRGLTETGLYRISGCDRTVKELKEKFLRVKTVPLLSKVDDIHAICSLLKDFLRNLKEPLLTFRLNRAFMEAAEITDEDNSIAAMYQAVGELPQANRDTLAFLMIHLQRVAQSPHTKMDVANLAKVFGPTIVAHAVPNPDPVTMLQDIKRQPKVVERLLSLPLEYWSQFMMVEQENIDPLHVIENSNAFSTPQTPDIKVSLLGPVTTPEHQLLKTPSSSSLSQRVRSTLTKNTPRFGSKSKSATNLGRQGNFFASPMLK

[16] = biological target: T2, DNA repair protein RAD52 homolog (Homo sapiens, UniProt P43351); assay type: functional, biochemical
T2 sequence (P43351 whole entry): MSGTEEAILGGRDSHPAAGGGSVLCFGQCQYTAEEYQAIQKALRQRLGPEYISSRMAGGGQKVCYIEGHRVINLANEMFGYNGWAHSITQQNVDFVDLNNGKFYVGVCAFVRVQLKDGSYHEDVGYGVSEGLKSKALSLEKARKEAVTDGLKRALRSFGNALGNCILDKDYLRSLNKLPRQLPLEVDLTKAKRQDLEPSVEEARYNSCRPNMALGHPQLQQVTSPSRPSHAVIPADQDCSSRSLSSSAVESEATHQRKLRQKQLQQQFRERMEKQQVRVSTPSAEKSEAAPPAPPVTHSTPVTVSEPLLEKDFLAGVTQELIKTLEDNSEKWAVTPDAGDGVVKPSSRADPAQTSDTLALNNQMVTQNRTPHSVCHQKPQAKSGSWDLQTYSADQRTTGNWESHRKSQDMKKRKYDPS

[17] = HeLa cell cytotoxicity, dose response, cytotoxicity control for MgcRacGAP inhibitor project (AID 624300); assay type: functional
Albumin = Albumin (Bos taurus, UniProt P02769); assay: Counterscreen for inhibitors of T-cell receptor (TCR)-CD3 interaction: Fluorescence-based biochemical high throughput dose response assay to identify inhibitors of T-cell receptor (TCR)-CD3 interaction using a TAMRA-labeled BSA probe.; assay type: functional
Albumin, sequence (P02769 whole entry): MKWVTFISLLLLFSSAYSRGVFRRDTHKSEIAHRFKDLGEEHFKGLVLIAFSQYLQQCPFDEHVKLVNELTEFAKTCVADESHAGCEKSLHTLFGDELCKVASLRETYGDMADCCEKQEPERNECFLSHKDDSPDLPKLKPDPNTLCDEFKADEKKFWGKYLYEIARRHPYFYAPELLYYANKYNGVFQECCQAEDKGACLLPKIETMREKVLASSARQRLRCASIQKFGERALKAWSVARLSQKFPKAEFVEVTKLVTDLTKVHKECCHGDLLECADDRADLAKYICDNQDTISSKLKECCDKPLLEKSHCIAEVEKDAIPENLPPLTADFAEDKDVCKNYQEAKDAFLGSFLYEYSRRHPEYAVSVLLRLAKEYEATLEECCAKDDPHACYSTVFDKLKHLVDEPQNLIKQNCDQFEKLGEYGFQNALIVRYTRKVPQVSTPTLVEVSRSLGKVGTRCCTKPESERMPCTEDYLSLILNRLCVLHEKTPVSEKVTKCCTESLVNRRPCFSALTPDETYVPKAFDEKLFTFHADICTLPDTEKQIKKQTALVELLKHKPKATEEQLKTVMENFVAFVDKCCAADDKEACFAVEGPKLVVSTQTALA

[18] = biological target: T3, High affinity choline transporter 1 (Homo sapiens, UniProt Q9GZV3); assay: CHT inhibitors, dose response, cell-based, 10-point CRC, membrane potential dye (AID 588401); assay type: functional;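 also: membrane potential dye fluorescence of choline-evoked depolarization via CHT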
T3 sequence (Q9GZV3 whole entry): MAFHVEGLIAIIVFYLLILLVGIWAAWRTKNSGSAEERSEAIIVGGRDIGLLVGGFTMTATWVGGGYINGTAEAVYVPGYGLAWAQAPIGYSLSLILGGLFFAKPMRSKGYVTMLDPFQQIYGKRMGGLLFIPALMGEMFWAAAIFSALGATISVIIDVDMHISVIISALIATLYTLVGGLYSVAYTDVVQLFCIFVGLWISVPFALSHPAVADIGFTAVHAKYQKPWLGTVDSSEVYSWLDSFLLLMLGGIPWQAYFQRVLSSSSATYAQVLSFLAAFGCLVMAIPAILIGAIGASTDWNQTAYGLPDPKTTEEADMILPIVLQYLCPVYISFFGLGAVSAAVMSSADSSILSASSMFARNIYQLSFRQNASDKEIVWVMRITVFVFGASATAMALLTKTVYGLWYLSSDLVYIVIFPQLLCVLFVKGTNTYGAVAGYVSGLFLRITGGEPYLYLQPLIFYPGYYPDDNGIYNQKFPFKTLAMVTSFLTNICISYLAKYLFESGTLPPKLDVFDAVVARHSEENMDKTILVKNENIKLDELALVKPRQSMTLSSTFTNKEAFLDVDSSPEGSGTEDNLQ

Galanin receptor type 3 = biological target: T4, Galanin receptor type 3 (Homo sapiens, UniProt O60755); assay: Fluorescence-based cell-based primary high throughput dose response assay to identify antagonists of the Galanin Receptor 3 (GalR3).; assay type: functional
T4 sequence (O60755 whole entry): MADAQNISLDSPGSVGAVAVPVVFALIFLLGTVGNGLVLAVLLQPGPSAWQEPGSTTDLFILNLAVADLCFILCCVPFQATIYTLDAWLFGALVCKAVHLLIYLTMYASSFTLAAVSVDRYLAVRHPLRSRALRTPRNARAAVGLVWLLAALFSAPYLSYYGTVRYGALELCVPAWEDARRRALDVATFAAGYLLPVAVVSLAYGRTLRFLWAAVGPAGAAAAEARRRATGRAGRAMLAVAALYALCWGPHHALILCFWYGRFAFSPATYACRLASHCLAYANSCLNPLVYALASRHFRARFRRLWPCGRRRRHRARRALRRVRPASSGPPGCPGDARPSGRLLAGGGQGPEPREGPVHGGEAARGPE

[19] = biological target: T3, High affinity choline transporter 1; assay: CHT inhibitors, dose response, cell-based, 5-point CRC, membrane potential dye (AID 504840); assay type: functional
cells [20] = assay type: functional, cell-based; conditions: HEK-CNG
[21] = HEK293T cell cytotoxicity, dose response, cytotoxicity control for HIV Vif inhibitor project, cherry-picks (AID 652208); assay type: functional, cell-based
[22] = Luminescence Cell-Based Dose Retest to Confirm Inhibitors of Cancer Stem Cells. [Related pubchem assays (depositor defined):AID2717, AID2721]; assay type: functional; conditions: Homo sapiens
HeLa = assay: HeLa cell cytotoxicity, dose response, cytotoxicity control, ATP luminescence, cherry-pick samples (AID 687004); assay type: functional, cell-based; conditions: Homo sapiens
[23] = T. cruzi growth inhibition in host cells, dose response, cell-based, plate reader, dry powder, set 2 (AID 652275); assay type: functional
cells [24] = assay type: functional, cell-based
[25] = biological target: Nuclear receptor subfamily 0 group B member 1 (Homo sapiens, UniProt P51843); assay type: functional, cell-based;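 also: HEK293T cells transfected with SF-1 and DAX-1 plus StAR promoter luciferase reporter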
Nuclear receptor subfamily 0 group B member 1, sequence (P51843 whole entry): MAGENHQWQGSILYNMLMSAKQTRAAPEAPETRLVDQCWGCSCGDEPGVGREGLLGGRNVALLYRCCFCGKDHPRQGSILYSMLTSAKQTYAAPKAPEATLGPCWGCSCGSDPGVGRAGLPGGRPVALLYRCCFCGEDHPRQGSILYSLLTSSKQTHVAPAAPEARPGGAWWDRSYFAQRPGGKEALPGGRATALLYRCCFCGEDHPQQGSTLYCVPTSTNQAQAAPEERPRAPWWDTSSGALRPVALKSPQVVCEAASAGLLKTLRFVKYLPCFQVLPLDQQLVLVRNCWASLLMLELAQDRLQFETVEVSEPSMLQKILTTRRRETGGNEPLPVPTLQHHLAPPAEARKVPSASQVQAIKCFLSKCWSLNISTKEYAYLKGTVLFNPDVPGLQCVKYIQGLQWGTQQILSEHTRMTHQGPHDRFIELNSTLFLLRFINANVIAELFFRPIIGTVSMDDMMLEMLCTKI

[26] = biological target: Botulinum neurotoxin type F (Clostridium botulinum, UniProt P30996); assay: High-throughput multiplex microsphere dose response for inhibitors of toxin protease, specifically Botulinum neurotoxin light chain F protease, compounds from Cherry Pick 02.; assay type: functional; conditions: read-out: EC50_MICROM
Botulinum neurotoxin type F, sequence (P30996 1-436 limits assumed): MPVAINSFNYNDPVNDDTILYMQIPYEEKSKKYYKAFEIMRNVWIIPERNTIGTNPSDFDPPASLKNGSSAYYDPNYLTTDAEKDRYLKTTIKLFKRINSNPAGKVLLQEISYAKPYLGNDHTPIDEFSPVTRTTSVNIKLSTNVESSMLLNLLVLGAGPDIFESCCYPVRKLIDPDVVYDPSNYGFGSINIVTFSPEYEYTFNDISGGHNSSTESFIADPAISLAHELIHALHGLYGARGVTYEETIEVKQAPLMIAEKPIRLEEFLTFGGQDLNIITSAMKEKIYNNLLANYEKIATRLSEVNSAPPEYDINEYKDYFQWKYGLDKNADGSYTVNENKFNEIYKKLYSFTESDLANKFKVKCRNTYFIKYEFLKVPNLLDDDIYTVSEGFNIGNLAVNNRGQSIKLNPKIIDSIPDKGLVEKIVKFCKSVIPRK

## Nc1nc(-c2ccccc2)c(-c2ccc([N+](=O)[O-])cc2)s1
Plasmodium falciparum
  AbsAC35: 103.54 µM

## O=C(/C=C/c1cccs1)NC(=S)NNC(=O)Cc1cccs1
[1]
  IC50: 37 µM (inactive)
[2]
  EC50: 2.01 µM (active)
Streptococcus
  EC50: 5.99 µM (active)

## C[C@@H]1CN([C@@H](C)CO)C(=O)Cc2cc(NC(=O)Cc3ccccc3)ccc2O[C@H]1CN(C)Cc1ccc(C(F)(F)F)cc1
[3]
  AbsAC35: 115.61 µM

## CNCCc1ccc(O)c(O)c1
Mu-type opioid receptor
  EC50: 92.3 µM (inactive)
[4]
  AC50: 4.11 µM (active)
[5]
  EC50: 0.0874 µM (active)

## C[C@@H]1CCCCO[C@@H](CN(C)CC2CCCCC2)[C@@H](C)CN([C@@H](C)CO)C(=O)c2cc(NC(=O)Nc3cccc4ccccc34)ccc2O1
[6]
  AC50: 14.6 µM (active)
[7]
  AC50: 8.05 µM (active)
[8]
  AC50: 10.4 µM (active)

## O=C1NC(=S)N(c2ccccc2F)C(=O)C1=Cc1ccco1
NS3
  IC50: 3.35 µM (inactive)

## COc1cc(OC)cc(C(=O)Nc2cc(N(C)C)ncn2)c1
Protein Wnt-3a
  IC50: > 21.8 µM (inactive)

## O=C(CCS(=O)(=O)c1ccc(Cl)cc1)Nc1nc(-c2ccncc2)cs1
[9]
  EC50: > 180 µM (inactive)
Paired box protein Pax-8
  AC50: 8.17 µM (active)
[10]
  EC50: > 150 µM (inactive)
[11]
  AC50: < 3.35 µM (active)
[12]
  EC50: 27.9 µM (active)
[13]
  EC50: 5.04 µM (active)

## C[n+]1c(-c2ccc(C=NNC(=O)c3ccc(C(=O)NN=Cc4ccc(-c5cn6ccccc6[n+]5C)cc4)cc3)cc2)cn2ccccc21
[14]
  IC50: 22.3 µM (inactive)
[15]
  IC50: 66.4 µM (active)
[16]
  AC50: 1.52 µM (active)
[17]
  CC50: 100 µM (active)

## C/C(=N\NC(=O)c1ccc(-c2ccccc2)cc1)C1C(=O)c2ccccc2C1=O
[2]
  EC50: 0.557 µM (active)
Albumin
  IC50: > 94.1 µM (inactive)
Streptococcus
  EC50: 4.32 µM (active)

## C=CCNc1ncnc2c1ncn2C1OC(CO)C(O)C1O (configuration not stated)
[18]
  IC50: 6.31 µM (active)
Galanin receptor type 3
  IC50: > 0.369 µM (active)
[19]
  IC50: 9.17 µM (active)
Cells [20]
  EC50: 15.8 µM (inactive)
[21]
  AC50: 22.1 µM (active)
[22]
  AC50: 3.33 µM (active)

## C/C=C/c1ccc2n(c1=O)C[C@H]1[C@H](CO)[C@@H](C(=O)N3CCc4ccccc4C3)N(C(=O)C3CC3)[C@@H]21.C/C=C\c1ccc2n(c1=O)C[C@H]1[C@H](CO)[C@@H](C(=O)N3CCc4ccccc4C3)N(C(=O)C3CC3)[C@@H]21
HeLa
  AC50: > 52 µM (inactive)

## CC(C)N1CC2(CN(Cc3ccccc3F)C2)Oc2c(NC(=O)c3ccncc3)cccc2C1=O
[23]
  AC50: 0.747 µM (active)

## Cc1ccn2c(Cc3ccccc3)c(-c3ccc(Br)cc3)nc2c1
Cells [24]
  IC50: > 67.6 µM (inactive)
[25]
  IC50: > 67.6 µM (inactive)

## Cc1ccc(-c2nc3cc(C)c(Br)c(C)n3c2Cc2cccc(Cl)c2)cc1
[26]
  EC50: > 20 µM (inactive)
